{"source": "PubChem BioAssay AID1963831", "about": "(Molecular Pharmacology Branch, DTP, NCI, 2024);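 note: spheroids exposed to compounds for seven days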;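 for viability, T/C: 100% = DMSO vehicle control viability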", "test_system": "889142-216-R-J1-PDC complex spheroid viability", "test": "Anticancer human tumor 889142-216-R-J1-PDC patient-derived bladder carcinoma cell line growth inhibition [POLQ]", "conditions": "for IC50: curve of first compound; for viability, T/C: stronger effect = lower value", "procedure,_shortened": "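Three-cell-type spheroids modelling solid tumor plus stroma served as the readout system; POL inhibitors were tested individually and in combination, concentration ranges set by clinical Cmax where known.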"}
{"smiles": "CNCc1ccc(-c2[nH]c3cc(F)cc4c3c2CCNC4=O)cc1", "note": "+ COC1C(OC(N)=O)C(O)C(Oc2ccc3c(O)c(NC(=O)c4ccc(O)c(CC=C(C)C)c4)c(=O)oc3c2C)OC1(C)C", "values": [{"measurement": "IC50", "setting": "second compound 0.0316 µM", "value": "> 10", "unit": "µM"}, {"measurement": "IC50", "setting": "second compound 0.1 µM", "value": "> 10", "unit": "µM"}, {"measurement": "IC50", "setting": "second compound 0.316 µM", "value": "> 10", "unit": "µM"}, {"measurement": "IC50", "setting": "second compound 1 µM", "value": "> 10", "unit": "µM"}, {"measurement": "IC50", "setting": "second compound 3.16 µM", "value": "> 10", "unit": "µM"}, {"measurement": "IC50", "setting": "second compound 10 µM", "value": "> 10", "unit": "µM"}, {"measurement": "viability, T/C", "setting": "second compound 0.0316 µM, first compound 0.0316 µM", "value": 120, "unit": "%"}, {"measurement": "viability, T/C", "setting": "second compound 0.0316 µM, first compound 0.1 µM", "value": 97.3, "unit": "%"}, {"measurement": "viability, T/C", "setting": "second compound 0.0316 µM, first compound 0.316 µM", "value": 100, "unit": "%"}, {"measurement": "viability, T/C", "setting": "second compound 0.0316 µM, first compound 1 µM", "value": 105, "unit": "%"}, {"measurement": "viability, T/C", "setting": "second compound 0.0316 µM, first compound 3.16 µM", "value": 97.2, "unit": "%"}, {"measurement": "viability, T/C", "setting": "second compound 0.0316 µM, first compound 10 µM", "value": 79.5, "unit": "%"}, {"measurement": "viability, T/C", "setting": "second compound 0.1 µM, first compound 0.0316 µM", "value": 109, "unit": "%"}, {"measurement": "viability, T/C", "setting": "second compound 0.1 µM, first compound 0.1 µM", "value": 107, "unit": "%"}, {"measurement": "viability, T/C", "setting": "second compound 0.1 µM, first compound 0.316 µM", "value": 96.4, "unit": "%"}, {"measurement": "viability, T/C", "setting": "second compound 0.1 µM, first compound 1 µM", "value": 93.2, "unit": "%"}, {"measurement": "viability, T/C", "setting": "second compound 0.1 µM, first compound 3.16 µM", "value": 98.1, "unit": "%"}, {"measurement": "viability, T/C", "setting": "second compound 0.1 µM, first compound 10 µM", "value": 85.4, "unit": "%"}, {"measurement": "viability, T/C", "setting": "second compound 0.316 µM, first compound 0.0316 µM", "value": 103, "unit": "%"}, {"measurement": "viability, T/C", "setting": "second compound 0.316 µM, first compound 0.1 µM", "value": 98.6, "unit": "%"}, {"measurement": "viability, T/C", "setting": "second compound 0.316 µM, first compound 0.316 µM", "value": 90.6, "unit": "%"}, {"measurement": "viability, T/C", "setting": "second compound 0.316 µM, first compound 1 µM", "value": 122, "unit": "%"}, {"measurement": "viability, T/C", "setting": "second compound 0.316 µM, first compound 3.16 µM", "value": 97.6, "unit": "%"}, {"measurement": "viability, T/C", "setting": "second compound 0.316 µM, first compound 10 µM", "value": 58.2, "unit": "%"}, {"measurement": "viability, T/C", "setting": "second compound 1 µM, first compound 0.0316 µM", "value": 96.8, "unit": "%"}, {"measurement": "viability, T/C", "setting": "second compound 1 µM, first compound 0.1 µM", "value": 92.6, "unit": "%"}, {"measurement": "viability, T/C", "setting": "second compound 1 µM, first compound 0.316 µM", "value": 103, "unit": "%"}, {"measurement": "viability, T/C", "setting": "second compound 1 µM, first compound 1 µM", "value": 94.3, "unit": "%"}, {"measurement": "viability, T/C", "setting": "second compound 1 µM, first compound 3.16 µM", "value": 82.6, "unit": "%"}, {"measurement": "viability, T/C", "setting": "second compound 1 µM, first compound 10 µM", "value": 84.2, "unit": "%"}, {"measurement": "viability, T/C", "setting": "second compound 3.16 µM, first compound 0.0316 µM", "value": 89.2, "unit": "%"}, {"measurement": "viability, T/C", "setting": "second compound 3.16 µM, first compound 0.1 µM", "value": 106, "unit": "%"}, {"measurement": "viability, T/C", "setting": "second compound 3.16 µM, first compound 0.316 µM", "value": 92, "unit": "%"}, {"measurement": "viability, T/C", "setting": "second compound 3.16 µM, first compound 1 µM", "value": 83.9, "unit": "%"}, {"measurement": "viability, T/C", "setting": "second compound 3.16 µM, first compound 3.16 µM", "value": 93.2, "unit": "%"}, {"measurement": "viability, T/C", "setting": "second compound 3.16 µM, first compound 10 µM", "value": 89.3, "unit": "%"}, {"measurement": "viability, T/C", "setting": "second compound 10 µM, first compound 0.0316 µM", "value": 115, "unit": "%"}, {"measurement": "viability, T/C", "setting": "second compound 10 µM, first compound 0.1 µM", "value": 98.2, "unit": "%"}, {"measurement": "viability, T/C", "setting": "second compound 10 µM, first compound 0.316 µM", "value": 88.5, "unit": "%"}, {"measurement": "viability, T/C", "setting": "second compound 10 µM, first compound 1 µM", "value": 83.4, "unit": "%"}, {"measurement": "viability, T/C", "setting": "second compound 10 µM, first compound 3.16 µM", "value": 104, "unit": "%"}, {"measurement": "viability, T/C", "setting": "second compound 10 µM, first compound 10 µM", "value": 84, "unit": "%"}]}
